In series [1] the test system is DENV-2. Description: Viral cell-to-cell spread assay. Conditions: for effect on viral plaque size (cell-to-cell spread): DENV-2, Figure 7; for inhibition at 25 µM: Dengue virus, DENV2, Vero, read-out: Window of antiviral effects: Cell-to-cell spread, inhibitory effect relative to DMSO control. The series is classed as cell-based, dengue virus type 2.
For series [2] the following is noted: cited from earlier work.
For series [3], the system named is DENV-2. Description: Viral penetration assay. The series is classed as cell-based, dengue virus type 2. The settings on record: DENV-2; shift 4°C to 37°C; Figure 4.
Series [4] deals with HCV. Description: Viral inactivation assay. The series is classed as cell-based.
The test system of series [5] is DENV-2. Nature of the series: Viral attachment assay, method 2 (virus-specific cellular ELISA). The series is classed as cell-based, dengue virus type 2. Conditions: DENV-2 MOI 5, ELISA, 4°C; highest inhibitory concentration of the compounds.
Series [6] relates to HCV. Nature of the series: Viral attachment assay, method 1 (host cell infection). The series is classed as cell-based, hepatitis C virus. The settings on record: for inhibition of virus attachment: HCV, method 1, 4°C, Figure 4; for inhibition at 50 µM: Hepatitis C virus, Huh7.5, read-out: Window of antiviral effects: Attachment Method 1, inhibitory effect relative to DMSO control.

The subject of series [7] is HCV. The series is classed as cell-based, hepatitis C virus. The settings on record: Huh-7.5 cells.
Series [8] has as its system HCV. Nature of the series: Viral cell-to-cell spread assay. In kind it is cell-based, hepatitis C virus. The settings on record: for effect on viral plaque size (cell-to-cell spread): HCV, Figure 7; for inhibition at 50 µM: Hepatitis C virus, Huh7.5, read-out: Window of antiviral effects: Cell-to-cell spread, inhibitory effect relative to DMSO control. Here is the method:
(A) Schematic of the experiment (left) with the virus concentration (PFU/well) and step-wise incubation periods (i, ii, iii) indicated for each virus in the table on the right. Virus infections were established (i) in the different cell types by direct inoculation (HCMV, DENV-2, MV, and RSV) or electroporation of viral RNA (HCV; *), and the cell monolayers were washed with citrate buffer or PBS before being covered with an overlay medium that prevents secondary infection. Initial virus plaques were allowed to form in the subsequent infections (ii), and then the test compounds were added to the overlay medium for an additional time of incubation (iii) before analysis of viral plaque size by immune fluorescence microscopy. Five random virus-positive plaques at the endpoint of the experiment were evaluated for each treatment group of viruses, and the data was plotted as “fold change of plaque area” against the size of the initial viral plaques formed prior to test compound treatment. Analyses for (B) HCMV, (C) HCV, (D) DENV-2, (E) MV, and (F) RSV are indicated in each additional panel. The S29 cell line and the FIP inhibitor were included as controls for HCV and MV, respectively. Results shown are means ± SEM from three independent experiments and representative micrographs of the evaluated plaques are provided in Additional file 1 Figure S1, Additional file 2 Figure S2, Additional file 3 Figure S3, Additional file 4 Figure S4 and Additional file 5 Figure S5. See text for details.
The examination of HCV spread is based on previously described protocol with some modifications. Huh-7.5 cells were electroporated with HCV Jc1FLAG2(p7-nsGluc2A) RNA (10 μg) as described above to establish random productive infections in the cell population, and then mixed with naïve cells at a ratio of 1:1 before seeding in 12-well plates. […] Medium was changed 24 h post-electroporation with an overlay medium containing the test drugs or control and 0.5% methylcellulose, and the plates were further incubated for 5 days before analysis of HCV-positive foci through immunostaining.
For immunofluorescence analysis of viral plaque size due to spread, the overlay media were removed and the wells were fixed with ice-cold methanol before blocking with 3% BSA. Samples were then treated at 37°C for 1 h with the respective mouse monoclonal primary antibodies diluted in PBS containing 3% BSA: anti-HCMV gB antibody (1:1,000), anti-NS5A 9E10 antibody for HCV (1:25,000), anti-flavivirus group antibody (1:400) for DENV-2, and anti-RSV fusion protein antibody (1:1,000). After incubation, the wells were washed with PBS three times before applying Alexa Fluor 488 goat anti-mouse IgG (H + L) antibody (Invitrogen), diluted at 1:1,000 (HCMV and RSV) or 1:400 (DENV-2 and HCV) in PBS containing 3% BSA. Following incubation at 37°C for 1 h, the samples were washed with PBS three times prior to visualization by fluorescence microscopy. The fluorescence expression of MV-EGFP could be readily detected without addition of antibodies. Photomicrographs were taken at × 100 magnification (Leica Microsystems; Wetzlar, Germany) and viral plaque sizes were then analyzed with MetaMorph software (Molecular Devices; Sunnyvale, CA, USA). In the case of HCV, cellular nuclei were stained with Hoechst dye (Sigma) prior to visualization and the number of cells in the virus-positive foci was determined. For all virus tested, a total of five random virus-positive plaques were evaluated for each treatment group per independent experiment. Comparison was made between viral plaques stained prior to drug addition and those at the endpoint of the experiment, and the data were plotted as “fold change of plaque area”.

The next series concerns VSV. In kind it is cell-based, vesicular stomatitis virus. Conditions: A549 cells.
For another series, the system named is MV. Description: Viral inactivation assay. The series is classed as cell-based, measles virus. Conditions: for block of infection after pre-incubation of free virus with compound: MV, CHLA 90 μM, PUG 50 μM, Figure 3.
In series [9] the test system is HCMV. Nature of the series: Viral attachment assay, method 1 (host cell infection). In kind it is cell-based, human cytomegalovirus. The settings on record: Human betaherpesvirus 5, HEL, read-out: Window of antiviral effects: Attachment Method 1, inhibitory effect relative to DMSO control.
Series [10] has as its system HCMV. Nature of the series: Viral attachment assay, method 2 (virus-specific cellular ELISA). The series is classed as cell-based, human cytomegalovirus. Conditions: HCMV MOI 5, ELISA, 4°C; highest inhibitory concentration of the compounds. A general note: An ELISA detects its analyte on a solid surface through an enzyme-linked reagent.
In another series the test system is RSV. Nature of the series: Viral attachment assay, method 1 (host cell infection). In kind it is cell-based, respiratory syncytial virus. The settings on record: for inhibition of virus attachment: RSV, method 1, 4°C, Figure 4.
[11] abbreviates: Hepatitis C virus, Huh7.5, read-out: Window of antiviral effects: Free particle, inhibitory effect relative to DMSO control.
Where [12] appears, read: Measles morbillivirus, read-out: Window of antiviral effects: Free particle, inhibitory effect relative to DMSO control.
Where [13] appears, read: human respiratory syncytial virus, HEp-2, read-out: Window of antiviral effects: Attachment Method 1, inhibitory effect relative to DMSO control.

Where two headings read alike, the source gives them in different places.

With `O=C1O[C@H]2[C@@H]3OC(=O)c4cc(O)c(O)c(O)c4-c4c(O)c(O)c5oc(=O)c6c(c(O)c(O)c7oc(=O)c4c5c76)-c4c(cc(O)c(O)c4O)C(=O)OC[C@H]3OC(O)[C@@H]2OC(=O)c2cc(O)c(O)c(O)c2-c2c1cc(O)c(O)c2O` (mixture of isomers) [PUG, punicalagin], the “effect on viral plaque size (cell-to-cell spread)” value is “unaffected and expanded further” in the series with DENV-2 [1]; “near initial size” in the series with HCV [8]. In addition, in the series on DENV-2 [1], the inhibition at 25 µM was less than 25%. Moreover, in series [2] (In vivo toxicological and metabolic studies, ref [67], [68]), the in vivo toxicity entry is given as “minimal toxicity”. Also, the “protection of the host cell from infection during virus penetration” value in the series with DENV-2 [3] is 50 – 90%. Moreover, the inhibition at 50 µM in the series on HCV [4] (setting [11]) was more than 75%; with HCV [4] (Hepatitis C virus, read-out: inhibition of infection after pre-incubation of free virus with compound), approximately 100%; in the series with HCV [6], more than 75%; with HCV [8], more than 75%; in the series with MV (setting [12]), 50 to 75%. Further, the “Window of antiviral effects: Attachment Method 2, inhibitory effect relative to DMSO control” value is “+++ (+++ > 75%)” in the series on DENV-2 [5] and “++ (++ 50–75%)” with HCMV [10]. Further, the “inhibition of virus attachment” value in the series on HCV [6] and with RSV was 90 – 100% in each case. Further, the “SI (selectivity index, CC50/EC50)” value with HCV [7] was found to be 13.31; in the series with VSV, 8.62. Besides, the “block of infection after pre-incubation of free virus with compound” value with MV was 60 – 80%. The inhibition at 40 µM in the series with HCMV [9] was 50 to 75%. For the same compound, in the series on RSV (setting [13]), the inhibition at 2 µM is more than 75%.
In the case of `O=C(O)C[C@@H]1C(=O)O[C@H]2[C@@H]3OC(=O)c4cc(O)c(O)c(O)c4-c4c(cc(O)c(O)c4O)C(=O)OC[C@H]2O[C@@H](OC(=O)c2cc(O)c(O)c(O)c2)[C@@H]3OC(=O)c2cc(O)c(O)c3c2[C@H]1[C@H](O)C(=O)O3` [CHLA, chebulagic acid], the “effect on viral plaque size (cell-to-cell spread)” value in the series with DENV-2 [1] is “unaffected and expanded further”; with HCV [8], “near initial size”. For the same compound, the inhibition at 25 µM in the series on DENV-2 [1] is less than 25%. The in vivo toxicity result in series [2] (in vivo) was “minimal toxicity”. Further, the inhibition at 50 µM with HCV [4] (setting [11]) is more than 75%; with HCV [4] (Hepatitis C virus; read-out: inhibition of infection after pre-incubation of free virus with compound), approximately 100%; in the series on HCV [6] it was more than 75%; in the series on HCV [8], more than 75%. Besides, the “Window of antiviral effects: Attachment Method 2, inhibitory effect relative to DMSO control” value in the series on DENV-2 [5] and with HCMV [10] was “+++ (+++ > 75%)” throughout. Also, the “inhibition of virus attachment” value with HCV [6] and in the series with RSV was 90 – 100% each time. Besides, the “SI (selectivity index, CC50/EC50)” value in the series with HCV [7] turned out to be 19.54; with VSV it was 5.17. Besides, the “block of infection after pre-incubation of free virus with compound” value in the series with MV was 60 – 80%. For the same compound, the inhibition at 90 µM in the series with MV (setting [12]) lay within 50 to 75%. In addition, in the series with RSV (setting [13]), the inhibition at 1 µM is more than 75%.

The values above are taken from article PMC3750913 (BMC Microbiology, 2013).
